According to US20260262643A1, “HERBICIDAL BENZOXAZINES” (FMC CORPORATION, priority 2022, published 2026):
Like-named read-outs stand apart in the source and are kept apart here.

What was measured:
wheat = test: Test A preemergence; type: in vivo, Triticum aestivum; settings: Triticum aestivum, pre-emergence, 240 h, read-out: Plant response rating, Wheat; for plant injury at 125 g/ha: 125 g ai/ha; for plant injury at 500 g/ha: 500 g ai/ha
Summary of the method: (§1)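 Greenhouse pot test, 10 days. Compound (non-phytotoxic solvent, surfactant) sprayed on soil at seeding or on seedlings at one- to two-leaf stage. Visual injury rated 0–100 against untreated plants.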

blackgrass = test: Test A postemergence; type: in vivo, Alopecurus myosuroides; settings: Alopecurus myosuroides, post-emergence, 240 h; for pest or weed control at 125 g/ha: 125 g ai/ha; for pest or weed control at 500 g/ha: 500 g ai/ha
Summary of the method: as §1

ryegrass, Italian = test: Test A preemergence; type: in vivo, Lolium multiflorum; settings: Lolium multiflorum, pre-emergence, 240 h, read-out: Plant response rating, Ryegrass, Italian; for pest or weed control at 125 g/ha: 125 g ai/ha; for pest or weed control at 500 g/ha: 500 g ai/ha
Summary of the method: as §1

horseweed = test: Test A postemergence; type: in vivo, Erigeron canadensis; settings: Erigeron canadensis, post-emergence, 240 h, postemergence, 10 days, 0 to 100 scale (0 no effect, 100 complete control); for pest or weed control at 125 g/ha: 125 g ai/ha; for pest or weed control at 500 g/ha: 500 g ai/ha
Summary of the method: as §1

ragweed = test: Test A preemergence; type: in vivo, Ambrosia artemisiifolia; settings: Ambrosia artemisiifolia, pre-emergence, 240 h, read-out: Plant response rating, Ragweed; for pest or weed control at 125 g/ha: 125 g ai/ha; for pest or weed control at 500 g/ha: 500 g ai/ha
Summary of the method: as §1

barnyardgrass [1] = test: Test A preemergence; type: in vivo, Echinochloa crusgalli; settings: visual injury after 10 days, 0 to 100 scale, 0 is no effect, 100 is complete control
Summary of the method: as §1

barnyardgrass [2] = test: Test A postemergence; type: in vivo, Echinochloa crusgalli; settings: postemergence, 10 days
Summary of the method: as §1

corn [3] = test: Test A preemergence; type: in vivo, Zea mays; settings: Zea mays, pre-emergence, 240 h; for Corn plant response rating (crop injury, 0 = no effect, 100 = complete kill) at 125 g/ha: 125 g ai/ha; for Corn plant response rating (crop injury, 0 = no effect, 100 = complete kill) at 500 g/ha: 500 g ai/ha
Summary of the method: as §1

pigweed, palmer = test: Test A postemergence; type: in vivo, Amaranthus palmeri; settings: Amaranthus palmeri, post-emergence, 240 h, postemergence, 10 days, 0 to 100 scale (0 no effect, 100 complete control); for pest or weed control at 500 g/ha: 500 g ai/ha, visual injury, read-out: Plant response rating, Pigweed, Palmer
Summary of the method: as §1

barnyardgrass [4] = test: Test B flooded paddy test; type: in vivo, Echinochloa crus-galli; settings: Echinochloa crus-galli, 312 h, 250 g ai/ha, Flood, 13 days, 0 to 100 scale (0 no effect, 100 complete control); read-out: Plant response rating, Barnyardgrass
Summary of the method: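 Visual scores from 0 (no effect) to 100 (complete kill) were assigned 13 days after treatment by comparison with controls. Seedlings had been treated at two leaves by adding compound to floodwater standing 3 cm deep, kept at that level in the greenhouse.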

corn [5] = test: Test A postemergence; type: in vivo, Zea mays; settings: Zea mays, post-emergence, 240 h, postemergence, 10 days, 0 to 100 scale (0 no effect, 100 complete control); for Corn plant response rating (crop injury, 0 = no effect, 100 = complete kill) at 500 g/ha: 500 g ai/ha; for Corn plant response rating (crop injury, 0 = no effect, 100 = complete kill) at 500 g/ha / Corn plant response rating (crop injury, 0 = no effect, 100 = complete kill) at 125 g/ha: visual injury
Summary of the method: as §1

foxtail, giant [6] = test: Test A preemergence; type: in vivo, Setaria faberi; settings: Setaria faberi, pre-emergence, 240 h, read-out: Plant response rating, Foxtail, Giant; for pest or weed control at 125 g/ha: 125 g ai/ha, visual injury after 10 days, 0 to 100 scale, 0 is no effect, 100 is complete control; for pest or weed control at 500 g/ha: 500 g ai/ha, 0 to 100 scale (0 no effect, 100 complete control), 10 days
Summary of the method: as §1

goosegrass [7] = test: Test A preemergence; type: in vivo, Eleusine indica; settings: Eleusine indica, pre-emergence, 240 h, read-out: Plant response rating, Goosegrass; for pest or weed control at 125 g/ha: 125 g ai/ha, visual injury after 10 days, 0 to 100 scale, 0 is no effect, 100 is complete control; for pest or weed control at 500 g/ha: 500 g ai/ha, 0 to 100 scale (0 no effect, 100 complete control), 10 days
Summary of the method: as §1

foxtail, giant [8] = test: Test A postemergence; type: in vivo, Setaria faberi; settings: Setaria faberi, post-emergence, 240 h, postemergence, 10 days, visual injury, 0 to 100 scale (0 no effect, 100 complete control), read-out: Plant response rating, Foxtail, Giant; for pest or weed control at 125 g/ha: 125 g ai/ha; for pest or weed control at 500 g/ha: 500 g ai/ha
Summary of the method: as §1

goosegrass [9] = test: Test A postemergence; type: in vivo, Eleusine indica; settings: Eleusine indica, post-emergence, 240 h, postemergence, 10 days, visual injury, 0 to 100 scale (0 no effect, 100 complete control), read-out: Plant response rating, Goosegrass; for pest or weed control at 125 g/ha: 125 g ai/ha; for pest or weed control at 500 g/ha: 500 g ai/ha
Summary of the method: as §1

[10] = visual injury after 10 days, 0 to 100 scale, 0 is no effect, 100 is complete control
[11] = postemergence, 10 days, visual injury, 0 to 100 scale (0 no effect, 100 complete control), read-out: Plant response rating, Blackgrass
[12] = visual injury, read-out: Plant response rating, Horseweed
[13] = 0 to 100 scale (0 no effect, 100 complete control), 10 days
[14] = Postemergence, 0 to 100 scale, read-out: Plant response rating, Blackgrass

## CC(C)c1ncn(-c2cc3c(c(C(=O)N4C[C@H](C)Oc5c(Cl)cccc54)c2)OCC3)n1 [Compound 147]
wheat; 0 to 100 scale
  plant injury at 125 g/ha: 20%
wheat; [10]
  plant injury at 500 g/ha: 50%
blackgrass; postemergence, 10 days, 0 to 100 scale (0 no effect, 100 complete control), read-out: Blackgrass plant response rating
  pest or weed control at 125 g/ha: 70%
blackgrass; [11]
  pest or weed control at 500 g/ha: 100%
ryegrass, Italian; 0 to 100 scale
  pest or weed control at 125 g/ha: 90%
ryegrass, Italian; [10]
  pest or weed control at 500 g/ha: 100%
horseweed; read-out: Horseweed plant response rating
  pest or weed control at 125 g/ha: 0%
horseweed; [12]
  pest or weed control at 500 g/ha: 0%
ragweed; 0 to 100 scale
  pest or weed control at 125 g/ha: 0%
ragweed; [10]
  pest or weed control at 500 g/ha: 0%
Barnyardgrass [1]; 125 g ai/ha
  Plant response rating, Barnyardgrass: 40
Barnyardgrass [1]; 500 g ai/ha
  Plant response rating, Barnyardgrass: 100
Barnyardgrass [2]; 125 g ai/ha, 0 to 100 scale, 0 no effect, 100 complete control
  Barnyardgrass plant response rating: 10
Barnyardgrass [2]; 500 g ai/ha, visual injury, 0 to 100 scale (0 no effect, 100 complete control)
  Plant response rating, Barnyardgrass: 70
Corn [3]; 0 to 100 scale
  Corn plant response rating (crop injury, 0 = no effect, 100 = complete kill) at 125 g/ha: 0%
Corn [3]; [10]
  Corn plant response rating (crop injury, 0 = no effect, 100 = complete kill) at 500 g/ha: 10%
pigweed, palmer; 125 g ai/ha, read-out: Pigweed, Palmer plant response rating
  pest or weed control at 125 g/ha: 80%
pigweed, palmer
  pest or weed control at 500 g/ha: 90%
Barnyardgrass [4]
  pest or weed control at 250 g/ha: 0%
Corn [5]; 125 g ai/ha, read-out: Corn plant response rating
  plant injury at 125 g/ha: 10%
Corn [5]
  Corn plant response rating (crop injury, 0 = no effect, 100 = complete kill) at 500 g/ha: 90%

## Cc1ccc(-n2cnc(C(C)C)n2)cc1C(=O)N1C[C@H](C)Oc2c(Cl)cccc21 [Compound 73, [(2S)-8-Chloro-2,3-dihydro-2-methyl-4H-1,4-benzoxazin-4-yl][2-methyl-5-[3-(1-methylethyl)-1H-1,2,4-triazol-1-yl]phenyl]methanone]
wheat; [10]
  plant injury at 125 g/ha: 20%
wheat; [13]
  plant injury at 500 g/ha: 80%
blackgrass; [11]
  pest or weed control at 125 g/ha: 90%
blackgrass; [14]
  pest or weed control at 500 g/ha: 90%
ryegrass, Italian; [10]
  pest or weed control at 125 g/ha: 90%
ryegrass, Italian; [13]
  pest or weed control at 500 g/ha: 100%
horseweed; [12]
  pest or weed control at 125 g/ha: 30%
  pest or weed control at 500 g/ha: 50%
foxtail, giant [6]
  pest or weed control at 125 g/ha: 100%
  pest or weed control at 500 g/ha: 100%
Goosegrass [7]
  pest or weed control at 125 g/ha: 100%
  pest or weed control at 500 g/ha: 100%
ragweed; [10]
  pest or weed control at 125 g/ha: 30%
ragweed; [13]
  pest or weed control at 500 g/ha: 90%
Corn [3]; [10]
  Corn plant response rating (crop injury, 0 = no effect, 100 = complete kill) at 125 g/ha: 60%
Corn [3]; [13]
  Corn plant response rating (crop injury, 0 = no effect, 100 = complete kill) at 500 g/ha: 80%
foxtail, giant [8]
  pest or weed control at 125 g/ha: 80%
  pest or weed control at 500 g/ha: 90%
Goosegrass [9]
  pest or weed control at 125 g/ha: 20%
  pest or weed control at 500 g/ha: 60%
pigweed, palmer
  pest or weed control at 500 g/ha: 90%
Barnyardgrass [4]
  pest or weed control at 250 g/ha: 45%
Corn [5]; 125 g ai/ha
  Corn plant response rating (crop injury, 0 = no effect, 100 = complete kill) at 125 g/ha: 70%
Corn [5]
  Corn plant response rating (crop injury, 0 = no effect, 100 = complete kill) at 500 g/ha: 70%

## Cc1ccc(-n2cnc(C(C)(C)C)n2)cc1C(=O)N1C[C@H](C)Oc2c(Cl)cccc21 [Compound 76, [(2S)-8-Chloro-2,3-dihydro-2-methyl-4H-1,4-benzoxazin-4-yl][5-[3-(1,1-dimethylethyl)-1H-1,2,4-triazol-1-yl]-2-methylphenyl]methanone]
wheat; [10]
  plant injury at 125 g/ha: 60%
wheat; [13]
  plant injury at 500 g/ha: 90%
blackgrass; [11]
  pest or weed control at 125 g/ha: 70%
blackgrass; [14]
  pest or weed control at 500 g/ha: 70%
ryegrass, Italian; [10]
  pest or weed control at 125 g/ha: 100%
ryegrass, Italian; [13]
  pest or weed control at 500 g/ha: 100%
horseweed; [12]
  pest or weed control at 125 g/ha: 70%
  pest or weed control at 500 g/ha: 80%
foxtail, giant [6]
  pest or weed control at 125 g/ha: 90%
  pest or weed control at 500 g/ha: 100%
Goosegrass [7]
  pest or weed control at 125 g/ha: 100%
  pest or weed control at 500 g/ha: 100%
ragweed; [10]
  pest or weed control at 125 g/ha: 30%
ragweed; [13]
  pest or weed control at 500 g/ha: 30%
Corn [3]; [10]
  Corn plant response rating (crop injury, 0 = no effect, 100 = complete kill) at 125 g/ha: 40%
Corn [3]; [13]
  Corn plant response rating (crop injury, 0 = no effect, 100 = complete kill) at 500 g/ha: 50%
foxtail, giant [8]
  pest or weed control at 125 g/ha: 90%
  pest or weed control at 500 g/ha: 90%
Goosegrass [9]
  pest or weed control at 125 g/ha: 50%
  pest or weed control at 500 g/ha: 80%
pigweed, palmer
  pest or weed control at 500 g/ha: 100%
Barnyardgrass [4]
  pest or weed control at 250 g/ha: 25%
Corn [5]; 125 g ai/ha
  Corn plant response rating (crop injury, 0 = no effect, 100 = complete kill) at 125 g/ha: 60%
Corn [5]
  Corn plant response rating (crop injury, 0 = no effect, 100 = complete kill) at 500 g/ha: 60%
